Source: patent publication US20240217990A1 (Gilead Sciences, Inc., priority 2021, published 2024)

Key:
TLR7 = target: T1, TLR7 (Homo sapiens, UniProt Q9NYK1); experiment: TLR7 human PBMC cell-based assay (antagonist, GS-986 stimulated cytokine release); details: human PBMCs; TLR7 agonist GS-986 400 nM, 6 hours; cytokines (IL-6 and IFNα) in supernatant; read-out: TLR-7 EC50
T1 construct: Human peripheral blood mononuclear cells (PBMCs) consist of lymphocytes, monocytes and dendritic cells that express TLR7, TLR8 and TLR9; endogenous in cells; host or cells: cryopreserved human PBMCs from healthy donors
T1 sequence (Q9NYK1 27-1049): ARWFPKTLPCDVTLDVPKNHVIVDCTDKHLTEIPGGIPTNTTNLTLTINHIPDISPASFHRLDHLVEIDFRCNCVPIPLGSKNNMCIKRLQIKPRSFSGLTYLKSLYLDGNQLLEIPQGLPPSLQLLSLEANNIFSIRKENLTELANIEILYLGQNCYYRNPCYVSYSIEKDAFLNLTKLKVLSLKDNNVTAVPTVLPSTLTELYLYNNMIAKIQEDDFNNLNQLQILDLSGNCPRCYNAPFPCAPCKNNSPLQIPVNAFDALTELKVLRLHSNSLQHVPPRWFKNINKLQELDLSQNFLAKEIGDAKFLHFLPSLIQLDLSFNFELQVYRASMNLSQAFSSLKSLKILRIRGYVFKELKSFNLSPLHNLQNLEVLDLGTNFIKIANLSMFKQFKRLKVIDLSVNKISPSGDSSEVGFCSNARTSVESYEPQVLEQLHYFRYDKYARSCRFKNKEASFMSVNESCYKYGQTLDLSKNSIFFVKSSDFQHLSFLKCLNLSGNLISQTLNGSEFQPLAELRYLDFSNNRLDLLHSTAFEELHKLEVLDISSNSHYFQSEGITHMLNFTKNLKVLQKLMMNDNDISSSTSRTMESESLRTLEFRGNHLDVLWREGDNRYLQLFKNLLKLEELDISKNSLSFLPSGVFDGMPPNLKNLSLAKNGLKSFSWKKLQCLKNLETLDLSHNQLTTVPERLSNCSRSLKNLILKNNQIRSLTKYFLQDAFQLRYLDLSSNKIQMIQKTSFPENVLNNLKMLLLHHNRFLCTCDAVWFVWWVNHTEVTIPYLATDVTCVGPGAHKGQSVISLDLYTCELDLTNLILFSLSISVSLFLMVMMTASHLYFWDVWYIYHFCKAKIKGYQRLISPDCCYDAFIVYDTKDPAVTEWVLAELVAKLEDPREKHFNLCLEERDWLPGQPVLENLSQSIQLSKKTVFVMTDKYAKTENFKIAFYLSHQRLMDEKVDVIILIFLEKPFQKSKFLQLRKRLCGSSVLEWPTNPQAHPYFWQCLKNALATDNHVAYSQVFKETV
Outline: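 EC50 derived by sigmoidal fitting of IL-6 and IFNα levels, quantified by electrochemiluminescence in supernatants of human PBMCs given 400 nM GS-986 for 6 h. Cells (100,000/well in RPMI-1640, 10% FBS) had received test antagonist 1 h beforehand, 10 doses in quadruplicate, at 37 °C.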

TLR8 = target: T2, TLR8 (Homo sapiens, UniProt Q9NR97); experiment: TLR8 human PBMC cell-based assay (antagonist, Compound A stimulated cytokine release); details: human PBMCs; TLR8 agonist Compound A 800 nM, 6 hours; cytokines (TNFa and IL 12p40) in supernatant; read-out: TLR-8 EC50
T2 construct: Human peripheral blood mononuclear cells (PBMCs) consist of lymphocytes, monocytes and dendritic cells that express TLR7, TLR8 and TLR9; endogenous in cells; host or cells: cryopreserved human PBMCs from healthy donors
T2 sequence (Q9NR97 27-1041): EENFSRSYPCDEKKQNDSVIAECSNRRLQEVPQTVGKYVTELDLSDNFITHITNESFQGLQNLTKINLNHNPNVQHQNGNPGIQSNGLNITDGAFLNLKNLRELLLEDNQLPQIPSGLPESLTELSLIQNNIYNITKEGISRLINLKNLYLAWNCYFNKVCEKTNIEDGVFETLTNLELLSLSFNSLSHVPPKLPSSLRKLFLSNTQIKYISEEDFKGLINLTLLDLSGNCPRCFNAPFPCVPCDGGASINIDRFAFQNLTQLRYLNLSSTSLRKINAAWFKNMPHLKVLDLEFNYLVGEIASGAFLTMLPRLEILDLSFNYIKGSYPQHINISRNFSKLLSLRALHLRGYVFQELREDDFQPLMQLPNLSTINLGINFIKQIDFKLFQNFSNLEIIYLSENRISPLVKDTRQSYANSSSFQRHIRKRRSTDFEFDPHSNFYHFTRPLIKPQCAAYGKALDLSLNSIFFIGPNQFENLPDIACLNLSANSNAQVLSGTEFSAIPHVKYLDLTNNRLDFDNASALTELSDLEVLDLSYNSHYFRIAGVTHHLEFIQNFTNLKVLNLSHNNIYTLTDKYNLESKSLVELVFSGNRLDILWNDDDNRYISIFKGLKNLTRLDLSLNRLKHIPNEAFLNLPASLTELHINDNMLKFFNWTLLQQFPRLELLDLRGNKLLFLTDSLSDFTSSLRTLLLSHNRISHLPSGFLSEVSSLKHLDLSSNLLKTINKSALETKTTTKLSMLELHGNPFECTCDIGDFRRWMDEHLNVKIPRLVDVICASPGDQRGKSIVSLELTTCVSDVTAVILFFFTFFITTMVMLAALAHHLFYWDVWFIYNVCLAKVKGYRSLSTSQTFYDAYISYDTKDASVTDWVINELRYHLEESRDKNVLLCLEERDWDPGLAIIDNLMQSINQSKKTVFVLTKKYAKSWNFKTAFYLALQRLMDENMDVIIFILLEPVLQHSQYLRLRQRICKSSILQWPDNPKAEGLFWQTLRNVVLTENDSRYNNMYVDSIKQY
Outline: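 Cryopreserved donor PBMCs (100,000/well, RPMI + 10% FBS) were preincubated 1 h with antagonist (10-point dose response, quadruplicate), then stimulated with Compound A (800 nM final) for 6 h at 37 °C. TNFa and IL-12p40 in supernatants were measured by electrochemiluminescence; sigmoidal fits gave EC50.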

EC50 (TLR7) [nM] | EC50 (TLR8) [nM] | Compound
0.8 | 3.3 | Cc1cc(-c2[nH]c3cc(-c4ccc(C5CCNCC5)cc4)sc3c2C(C)C)cn2ncnc12 [Example 221]
3.1 | 0.7 | Cc1c(-c2[nH]c3cc(-c4cnc5c(c4)CNCC5)sc3c2C(C)C)cn2ncnc2c1C [Example 222]
0.4 | 0.5 | Cc1cc(-c2[nH]c3cc(-c4ccc5c(c4)CCNC5)sc3c2C(C)C)cn2ncnc12 [Example 223]
37.8 | 5.3 | Cc1cc(-c2[nH]c3cc(-c4cccc5c4CCNC5)sc3c2C(C)C)cn2ncnc12 [Example 225]
0.6 | 0.7 | Cc1cc(-c2[nH]c3cc(-c4ccc5c(c4)CC(N)C5)sc3c2C(C)C)cn2ncnc12 (stereo not drawn) [Example 227]
1.1 | 1.3 | Cc1c(-c2[nH]c3cc(-c4cnn(C5CCNCC5)c4)sc3c2C(C)C)cn2ncnc2c1C [Example 229]
1.7 | 3.1 | Cc1c(-c2[nH]c3cc(-c4ccc(N5CCNCC5)cc4)sc3c2C(C)C)cn2ncnc2c1C [Example 231]
0.4 | 1.4 | COc1cc(-c2[nH]c3cc(-c4cnn(C5CCNCC5)c4)sc3c2C(C)C)cn2ncnc12 [Example 233]
8.1 | 8.4 | Cc1cc(-c2[nH]c3cc(-c4cccc(N5CCNCC5)c4)sc3c2C(C)C)cn2ncnc12 [Example 234]
18.6 | 14.2 | Cc1cc(-c2[nH]c3cc(-c4nc5ccncc5[nH]4)sc3c2C(C)C)cn2ncnc12 [Example 236]
2.8 | 14.2 | Cc1cc(-c2[nH]c3cc(-c4nc5ccc(N6CCNCC6)cc5n4C)sc3c2C(C)C)cn2ncnc12 [Example 238]
6.6 | 25.4 | Cc1c(-c2[nH]c3cc(-c4nc5ccc(N6CCNCC6)cc5[nH]4)sc3c2C(C)C)cn2ncnc2c1C [Example 239]
333 | 33.1 | CCc1c(-c2cc(C)c3ncnn3c2)[nH]c2cc(-c3nc4ccc(N5CCNCC5)nc4[nH]3)sc12 [Example 244, 6-ethyl-5-(8-methyl-[1,2,4]triazolo[1,5-a]pyridin-6-yl)-2-(5-(piperazin-1-yl)-311-imidazo[4,5-b]pyridin-2-yl)-4H-thieno[3,2-b]pyrrole]
337 | 66.7 | CCc1c(-c2cc(C)c3ncnn3c2)[nH]c2cc(-c3nc4ccc(N5CCNCC5)cc4[nH]3)sc12 [Example 245]
7.6 | 19.5 | Cc1cc(-c2[nH]c3cc(C(=O)N(C)C4CCC(N5CC6CCC(C5)O6)CC4)sc3c2C(C)C)cn2ncnc12 (stereo not drawn) [Example 248]
3 | 12 | Cc1cc(-c2[nH]c3cc(C(=O)N(C)C4CCC(N5CCN(CC(F)F)CC5)CC4)sc3c2C(C)C)cn2ncnc12 (stereo not drawn) [Example 249]
6.6 | 11 | Cc1cc(-c2[nH]c3cc(C(=O)N(C)C4CCC(N5CC(F)C5)CC4)sc3c2C(C)C)cn2ncnc12 (stereo not drawn) [Example 250]
9.6 | 11.2 | Cc1cc(-c2[nH]c3cc(C(=O)N(C)C4CCC(N5CC6(C5)CS(=O)(=O)C6)CC4)sc3c2C(C)C)cn2ncnc12 (stereo not drawn) [Example 252]
34.8 | 136 | Cc1cc(-c2[nH]c3cc(C(=O)N(C)C4CCC(N5CCC(F)(F)C5)CC4)sc3c2C(C)C)cn2ncnc12 (stereo not drawn) [Example 254]

More lines, now with the values behind:

Compound | EC50 (TLR7) [nM] | EC50 (TLR8) [nM]
COc1cc(-c2[nH]c3cc(-c4cnc5c(c4)CNCC5)sc3c2C(C)C)cn2ncnc12 [Example 224] | 0.4 | 0.3
Cc1cc(-c2[nH]c3cc(-c4cnn(C5CCNC5)c4)sc3c2C(C)C)cn2ncnc12 (stereo not drawn) [Example 226] | 0.6 | 1.6
Cc1c(-c2[nH]c3cc(-c4ccc(N5CCNCC5)nc4)sc3c2C(C)C)cn2ncnc2c1C [Example 228] | 0.4 | 0.5
Cc1c(-c2[nH]c3cc(-c4cn(C5CCNCC5)nn4)sc3c2C(C)C)cn2ncnc2c1C [Example 230] | 1.6 | 1.9
COc1cc(-c2[nH]c3cc(-c4cn(C5CCNCC5)nn4)sc3c2C(C)C)cn2ncnc12 [Example 232] | 0.7 | 1.3
Cc1cc(-c2[nH]c3cc(-c4nc5ccccc5[nH]4)sc3c2C(C)C)cn2ncnc12 [Example 235, 2-(1H-benzo[d]imidazol-2-yl)-6-isopropyl-5-(8-methyl-[1,2,4]triazolo[1,5-a]pyridin-6-yl)-4H-thieno[3,2-b]pyrrole] | 110 | 114
Cc1cc(-c2[nH]c3cc(-c4nc5ccc(N6CCNCC6)cc5[nH]4)sc3c2C(C)C)cn2ncnc12 [Example 237] | 6.8 | 49.4
Cc1c(C(=O)N2CCNCC2)sc2c(C(C)C)c(-c3cc(C)c4ncnn4c3)[nH]c12 [Example 240, (6-isopropyl-3-methyl-5-(8-methyl-[1,2,4]triazolo[1,5-a]pyridin-6-yl)-4H-thieno[3,2-b]pyrrol-2-yl)(piperazin-1-yl)methanone] | 21 | 301
Cc1c(C(=O)N(C)C2CCNCC2)sc2c(C(C)C)c(-c3cc(C)c4ncnn4c3)[nH]c12 [Example 241] | 1.4 | 314
Cc1c(C(=O)N2CCC[C@H](N)[C@@H]2C)sc2c(C(C)C)c(-c3cc(C)c4ncnn4c3)[nH]c12 [Example 242] | 15.4 | 219
Cc1c(C(=O)N2CCC[C@@H]3NCC[C@@H]32)sc2c(C(C)C)c(-c3cc(C)c4ncnn4c3)[nH]c12 [Example 243] | 52.4 | 82.9
Cc1cc(-c2[nH]c3cc(C(=O)N(C)C4CCC(N5CC(F)(F)C5)CC4)sc3c2C(C)C)cn2ncnc12 (stereo not drawn) [Example 246, N-(4-(3,3-difluoroazetidin-1-yl)cyclohexyl)-6-isopropyl-N-methyl-5-(8-methyl-[1,2,4]triazolo[1,5-a]pyridin-6-yl)-4H-thieno[3,2-b]pyrrole-2-carboxamide] | 53.4 | 191
Cc1cc(-c2[nH]c3cc(C(=O)N(C)C4CCC(N5CC(OC(F)(F)F)C5)CC4)sc3c2C(C)C)cn2ncnc12 (stereo not drawn) [Example 251] | 59.6 | 105
Cc1cc(-c2[nH]c3cc(C(=O)N(C)C4CCC(N5CC6(COC6)C5)CC4)sc3c2C(C)C)cn2ncnc12 (stereo not drawn) [Example 253] | 7.5 | 8.5
